The supplement of paper PMC10307832

What was measured:
Experiment in all cases: relative viability (nuclei count vs DMSO), 5 days (fraction); higher = more cells survive
Linsitinib + Vorinostat = compound: C[C@]1(O)C[C@@H](c2nc(-c3ccc4ccc(-c5ccccc5)nc4c3)c3c(N)nccn32)C1 [Linsitinib] + O=C(CCCCCCC(=O)Nc1ccccc1)NO [Vorinostat] (partner 1 µM)
How it was run: (§1)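 Relative viability is defined as nuclei in treated wells over nuclei in vehicle wells. Duplicate plates were run and medians reported. Lung cancer cell lines in 1536-well plates were dosed by pin tool one day after seeding, with one drug or with a fixed anchor-drug dose plus five library-drug doses (not always all listed) in √10 steps, and nuclei were counted after 5 days.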

Ispinesib + Lapatinib = compound: Cc1ccc(C(=O)N(CCCN)[C@@H](c2nc3cc(Cl)ccc3c(=O)n2Cc2ccccc2)C(C)C)cc1 [Ispinesib] + CS(=O)(=O)CCNCc1ccc(-c2ccc3ncnc(Nc4ccc(OCc5cccc(F)c5)c(Cl)c4)c3c2)o1 [Lapatinib] (partner 2 µM)
How it was run: as §1

Ispinesib + Dasatinib = compound: Cc1ccc(C(=O)N(CCCN)[C@@H](c2nc3cc(Cl)ccc3c(=O)n2Cc2ccccc2)C(C)C)cc1 [Ispinesib] + Cc1nc(Nc2ncc(C(=O)Nc3c(C)cccc3Cl)s2)cc(N2CCN(CCO)CC2)n1 [Dasatinib] (partner 0.075 µM)
How it was run: as §1

Ispinesib + Vorinostat = compound: Cc1ccc(C(=O)N(CCCN)[C@@H](c2nc3cc(Cl)ccc3c(=O)n2Cc2ccccc2)C(C)C)cc1 [Ispinesib] + O=C(CCCCCCC(=O)Nc1ccccc1)NO [Vorinostat] (partner 1 µM)
How it was run: as §1

Cell Line | relative viability (Linsitinib + Vorinostat; first compound 0.01 µM) | relative viability (Linsitinib + Vorinostat; first compound 0.03162 µM) | relative viability (Linsitinib + Vorinostat; first compound 0.1 µM) | relative viability (Linsitinib + Vorinostat; first compound 0.3162 µM) | relative viability (Linsitinib + Vorinostat; first compound 1 µM) | relative viability (Ispinesib + Lapatinib; first compound 0.001 µM) | relative viability (Ispinesib + Lapatinib; first compound 0.003162 µM) | relative viability (Ispinesib + Lapatinib; first compound 0.01 µM) | relative viability (Ispinesib + Lapatinib; first compound 0.03162 µM) | relative viability (Ispinesib + Lapatinib; first compound 0.1 µM) | relative viability (Ispinesib + Dasatinib; first compound 0.001 µM) | relative viability (Ispinesib + Dasatinib; first compound 0.003162 µM) | relative viability (Ispinesib + Dasatinib; first compound 0.01 µM) | relative viability (Ispinesib + Dasatinib; first compound 0.03162 µM) | relative viability (Ispinesib + Dasatinib; first compound 0.1 µM) | relative viability (Ispinesib + Vorinostat; first compound 0.001 µM) | relative viability (Ispinesib + Vorinostat; first compound 0.003162 µM) | relative viability (Ispinesib + Vorinostat; first compound 0.01 µM) | relative viability (Ispinesib + Vorinostat; first compound 0.03162 µM) | relative viability (Ispinesib + Vorinostat; first compound 0.1 µM)
NCI-H2405 | 1.04 | 0.907 | 0.973 | 0.698 | 0.487 | 1.08 | 1.12 | 1.18 | 0.918 | 0.308 | 0.208 | 0.223 | 0.656 | 0.184 | 0.247 | 1.07 | 1.19 | 1.23 | 0.622 | 0.519
NCI-H3122 | 0.966 | 0.921 | 0.98 | – | 0.702 | 0.986 | 1.01 | 1.07 | 0.72 | 0.21 | 0.944 | 0.917 | 0.973 | 0.759 | 0.127 | 1 | 1.09 | 1.07 | 0.855 | 0.119
PC-3 [JPC-3] | 0.78 | 0.784 | 0.843 | 0.492 | 0.571 | 0.456 | 0.486 | 0.439 | 0.413 | 0.318 | 1.11 | 1.06 | 1.14 | 0.868 | 0.578 | 0.776 | 0.977 | 0.794 | 0.498 | 0.435
PC-14 | 0.668 | 0.566 | 0.808 | 0.517 | 0.52 | 0.331 | 0.397 | 0.363 | 0.421 | 0.125 | 0.221 | 0.188 | 0.0739 | 0.0649 | 0.133 | 0.773 | 0.569 | 0.343 | 0.103 | 0.134
RERF-LC-KJ | 0.552 | 0.608 | 0.649 | 0.293 | 0.455 | 1.02 | 0.835 | 0.931 | 0.831 | 0.304 | 0.835 | 0.697 | 0.448 | 0.281 | 0.391 | 0.585 | 0.679 | 0.553 | 0.39 | 0.397
SK-LU-1 | 0.71 | 0.557 | 0.788 | 0.75 | 0.742 | 0.797 | 1.06 | 0.825 | 0.468 | 0.364 | 0.173 | 0.173 | 0.173 | 0.144 | 0.112 | 0.709 | 0.763 | 0.911 | 0.615 | 0.506
SK-MES-1 | 1.08 | 0.991 | 1.14 | 0.637 | 0.779 | 0.534 | 0.506 | 0.54 | 0.5 | 0.168 | 0.326 | 0.373 | 0.384 | 0.165 | 0.231 | 1.31 | 1.19 | 1.08 | 0.233 | 0.221
SW 1573 | 0.934 | 0.575 | 0.786 | 0.26 | 0.518 | 1.22 | 1.16 | 1.3 | 1.25 | 0.238 | 0.529 | 0.426 | 0.721 | 0.122 | 0.153 | 0.6 | 0.678 | 0.646 | 0.197 | 0.148
